Counter-ions that a name gives are not always drawn. Like-named read-outs stand apart in the source and are kept apart here.

Results on 21 compounds are retold here after patent US20120184542A1, “PYRIDO PYRIMIDINES” (priority 2011, published 2012).

The target in one assay is T1, Human DYRK1B (Homo sapiens, UniProt Q9Y463).
T1 construct: purchased Invitrogen PR8350B (former PV4649)
Put plainly: DYRK1B Kinase TR-FRET (IMAP-Tb) Assay. It is filed as biochemical. As to conditions: TR-FRET (IMAP-Tb), ATP 70 μM, 37° C. 60 minutes.

A further assay deals with T2, Human DYRK1A (Homo sapiens, UniProt Q13627).
T2 construct: purchased Invitrogen PV3997
Put plainly: DYRK1A Kinase TR-FRET (IMAP-Tb) Assay. In kind it is biochemical. Conditions: TR-FRET (IMAP-Tb); ATP 70 μM; 37° C. 60 minutes; read-out: Enzyme IC50 (μM) DYRK1A. The gist of the method:
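Recombinant human DYRK1A phosphorylated fluorescent substrate peptide (1.0 μM) with ATP in 10 mM HEPES pH 7.0, 50 mM NaCl, 5 mM MgCl2, 1 mM DTT, 1 mM NaVO4, 0.02% BSA for 60 min at 37 °C. Phosphopeptide detected by IMAP terbium TR-FRET; IC50 reported.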

Assay [1] deals with SW620 human colon cancer cells. Put plainly: SW620 Cell Viability Assay. It is filed as cell-based. As to conditions: Homo sapiens, SW-620, 96 h, read-out: Cellular EC50 (μM) SW620. The procedure: Some cells (S—) were allowed to attach for 24 hrs, serum starved for 48 hrs, and then followed with drug treatments Test Compound Solutions were Prepared in Regular Corresponding Media Supplemented with Serum 2. […] Viability Assay: This assay was performed as follows: • Transfer 50 μL of test compound solution per well from the test compound plate onto the cell plate prepared in Step #1. • Mix the plate with treated cells by pipetting up and down three times with 200 μL multi-channel pipette. • Incubate the cells in 5% CO2 incubator @ 37° C. for 4 days. • Run the CellTiter-Glo™ Luminescent Cell Viability Assay.

The mark [2] stands for this setting: read-out: Enzyme IC50 (μM) DYRK1B.
Where [3] appears, read: CellTiter-Glo, 4 days incubation.

T1 sequence (Q9Y463 whole entry): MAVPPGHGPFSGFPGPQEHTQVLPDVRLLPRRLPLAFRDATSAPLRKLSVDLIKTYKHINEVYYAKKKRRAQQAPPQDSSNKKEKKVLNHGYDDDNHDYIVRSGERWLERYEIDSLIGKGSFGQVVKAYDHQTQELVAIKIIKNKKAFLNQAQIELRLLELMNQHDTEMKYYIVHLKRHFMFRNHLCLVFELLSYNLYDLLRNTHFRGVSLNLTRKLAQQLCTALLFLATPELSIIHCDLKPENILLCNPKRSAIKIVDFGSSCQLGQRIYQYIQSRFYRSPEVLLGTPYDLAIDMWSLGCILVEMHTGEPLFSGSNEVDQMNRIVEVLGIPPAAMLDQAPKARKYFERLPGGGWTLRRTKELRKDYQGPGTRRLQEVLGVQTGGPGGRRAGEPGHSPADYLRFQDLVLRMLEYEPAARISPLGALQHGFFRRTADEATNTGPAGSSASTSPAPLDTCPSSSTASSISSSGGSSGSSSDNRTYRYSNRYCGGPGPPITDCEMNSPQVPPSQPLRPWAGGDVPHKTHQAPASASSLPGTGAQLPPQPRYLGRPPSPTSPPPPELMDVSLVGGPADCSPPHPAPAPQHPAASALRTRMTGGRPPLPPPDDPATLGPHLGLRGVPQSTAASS

For `CSc1ncc2cc(C(=O)Nc3cc(C(=O)NC(CCN)c4ccccc4)ccc3Cl)c(=O)[nH]c2n1` (centres unmarked) [Example 107, 2-Methylsulfanyl-7-oxo-7,8-dihydro-pyrido[2,3-d]pyrimidine-6-carboxylic acid [5-(3-amino-1-phenyl-propylcarbamoyl)-2-chloro-phenyl]-amide; hydrochloride], the values for the IC50 at Human DYRK1B (setting [2]) and on Human DYRK1A were 0.0105 µM and 0.00467 µM, respectively. The half-maximal effective concentration (EC50) in assay [1] (setting [3]) was 0.236 µM.

On to `COc1ncc2cc(C(=O)Nc3cc(C(=O)N[C@H](CN)c4cccc(Cl)c4)ccc3Cl)c(=O)[nH]c2n1` [Example 135, 2-Methoxy-7-oxo-7,8-dihydro-pyrido[2,3-d]pyrimidine-6-carboxylic acid {5-[(S)-2-amino-1-(3-chloro-phenyl)-ethylcarbamoyl]-2-chloro-phenyl}-amide], for which the half-maximal inhibitory concentration (IC50) on Human DYRK1B (setting [2]) came out at 0.0457 µM; on Human DYRK1A, 0.0109 µM. Moreover, in assay [1] (setting [3]), the EC50 stood at 0.523 µM.

As to `NCCC(NC(=O)c1ccc(Cl)c(NC(=O)c2cc3cnc(N4C[C@H]5CC[C@@H](C4)O5)nc3[nH]c2=O)c1)c1ccccc1` (stereo partly drawn) [Example 183, 2-(1R,5S)-8-Oxa-3-aza-bicyclo [3.2.1]oct-3-yl-7-oxo-7,8-dihydro-pyrido[2,3-d]pyrimidine-6-carboxylic acid [5-(3-amino-1-phenyl-propylcarbamoyl)-2-chloro-phenyl]amide; hydrochloride], the values for the 50% inhibitory concentration (IC50) at Human DYRK1B (setting [2]) and at Human DYRK1A were 0.0077 µM and 0.0046 µM, respectively. Moreover, the concentration for a half-maximal effect (EC50) in assay [1] (setting [3]) was 0.027 µM.

Take `CSc1ncc2cc(C(=O)Nc3cc(C(=O)NC(CN)c4ccccc4)ccc3Cl)c(=O)[nH]c2n1` (centres unmarked) [Example 105, N-(5-(2-amino-1-phenylethylcarbamoyl)-2-chlorophenyl)-2-(methylthio)-7-oxo-7,8-dihydropyrido[2,3-d]pyrimidine-6-carboxamide]: the IC50 amounted to 0.0099 µM at Human DYRK1B (setting [2]) and 0.0096 µM at Human DYRK1A. Also, the EC50 in assay [1] (setting [3]) amounted to 0.296 µM.

`N[C@H]1CC[C@@H](Nc2ncc3cc(C(=O)Nc4cc(C(=O)NCc5cccc(Cl)c5)ccc4Cl)c(=O)[nH]c3n2)CC1` [Example 118, 2-((1s,4 s)-4-Aminocyclohexylamino)-N-(2-chloro-5-(3-chlorobenzylcarbamoyl)phenyl)-7-oxo-7,8-dihydropyrido[2,3-d]pyrimidine-6-carboxamide hydrochloride]: the half-inhibitory concentration (IC50) is 0.0767 µM at Human DYRK1B (setting [2]) and 0.0569 µM at Human DYRK1A. In assay [1] (setting [3]), the EC50 was determined as 0.438 µM.

Take `NCCC(NC(=O)c1ccc(Cl)c(NC(=O)c2cc3cnc(N4CCC(N)CC4)nc3[nH]c2=O)c1)c1ccccc1` (centres unmarked) [Example 137, N-(5-(3-Amino-1-phenylpropylcarbamoyl)-2-chlorophenyl)-2-(4-aminopiperidin-1-yl)-7-oxo-7,8-dihydropyrido[2,3-d]pyrimidine-6-carboxamide hydrochloride]: the IC50 against Human DYRK1B (Enzyme IC50 (μM) DYRK1B) is 0.0258 µM. For the same compound, the EC50 in assay [1] came to 0.659 µM.

As to `COc1ncc2cc(C(=O)Nc3cc(C(=O)NC(CCN)c4cccc(Cl)c4)ccc3Cl)c(=O)[nH]c2n1` (centres unmarked) [Example 84, 2-Methoxy-7-oxo-7,8-dihydro-pyrido[2,3-d]pyrimidine-6-carboxylic acid {5-[3-amino-1-(3-chloro-phenyl)-propylcarbamoyl]-2-chloro-phenyl}-amide], on Human DYRK1B (Enzyme IC50 (μM) DYRK1B), the IC50 came out at 0.0108 µM. In assay [1], the EC50 came out at 0.235 µM.

Regarding `CNC(=O)c1ccc(Cl)c(NC(=O)c2cc3cnc(OC)nc3[nH]c2=O)c1` [Example 78, 2-Methoxy-7-oxo-7,8-dihydro-pyrido[2,3-d]pyrimidine-6-carboxylic acid (2-chloro-5-methylcarbamoyl-phenyl)-amide], on Human DYRK1B (Enzyme IC50 (μM) DYRK1B), the half-maximal inhibitory concentration (IC50) was 0.248 µM. Further, the half-maximal effective concentration (EC50) in assay [1] was found to be 2.52 µM.

With `COc1ncc2cc(C(=O)Nc3cc(C(=O)NC(CCN(C)C)c4cccc(Cl)c4)ccc3Cl)c(=O)[nH]c2n1` (centres unmarked) [Example 96, 2-Methoxy-7-oxo-7,8-dihydro-pyrido[2,3-d]pyrimidine-6-carboxylic acid {2-chloro-5-[1-(3-chloro-phenyl)-3-dimethylamino-propylcarbamoyl]-phenyl}-amide], at Human DYRK1B (setting [2]), the 50% inhibitory concentration (IC50) came out at 0.233 µM. Also, the concentration for a half-maximal effect (EC50) in assay [1] amounted to 1.97 µM.

As to `COC(=O)c1ccc(C)c(NC(=O)c2cc3cnc(OC)nc3[nH]c2=O)c1` [Example 19, 3-[(2-Methoxy-7-oxo-7,8-dihydro-pyrido[2,3-d]pyrimidine-6-carbonyl)-amino]-4-methyl-benzoic acid methyl ester], the half-maximal inhibitory concentration (IC50) at Human DYRK1B (Enzyme IC50 (μM) DYRK1B) amounted to 0.252 µM. For the same compound, the concentration giving a half-maximal response (EC50) in assay [1] came out at 92.5 µM.

On Human DYRK1B (Enzyme IC50 (μM) DYRK1B), `COc1ncc2cc(C(=O)Nc3cc(C(=O)NCc4cccs4)ccc3Cl)c(=O)[nH]c2n1` [Example 57, 2-Methoxy-7-oxo-7,8-dihydro-pyrido[2,3-d]pyrimidine-6-carboxylic acid {2-chloro-5-[(thiophen-2-ylmethyl)-carbamoyl]-phenyl}-amide] yielded an IC50 of 0.096 µM. The EC50 in assay [1] was determined as 2.41 µM.

Take `CN1CCN(CCNc2ncc3cc(C(=O)Nc4cc(C(=O)NC(CCN)c5ccccc5)ccc4Cl)c(=O)[nH]c3n2)CC1` (centres unmarked) [Example 132, N-(5-(3-Amino-1-phenylpropylcarbamoyl)-2-chlorophenyl)-2-(2-(4-methylpiperazin-1-yl)ethylamino)-7-oxo-7,8-dihydropyrido[2,3-d]pyrimidine-6-carboxamide hydrochloride]: the IC50 at Human DYRK1B (Enzyme IC50 (μM) DYRK1B) stood at 0.0306 µM. Besides, the EC50 in assay [1] was 0.228 µM.

With `COc1ncc2cc(C(=O)Nc3cc(C(=O)NCCCN)ccc3Cl)c(=O)[nH]c2n1` [Example 164, N-(5-(3-Aminopropylcarbamoyl)-2-chlorophenyl)-2-methoxy-7-oxo-7,8-dihydropyrido[2,3-d]pyrimidine-6-carboxamide], the IC50 on Human DYRK1B (setting [2]) was 0.774 µM. For the same compound, the EC50 in assay [1] was above 10 µM.

The compound `COc1ncc2cc(C(=O)Nc3cc(C(=O)NCc4ccsc4)ccc3Cl)c(=O)[nH]c2n1` [Example 58, 2-Methoxy-7-oxo-7,8-dihydro-pyrido[2,3-d]pyrimidine-6-carboxylic acid {2-chloro-5-[(thiophen-3-ylmethyl)-carbamoyl]-phenyl}-amide] showed an IC50 against Human DYRK1B (Enzyme IC50 (μM) DYRK1B) of 0.04 µM. For the same compound, the 50% effective concentration (EC50) in assay [1] was 1.73 µM.

As to `COc1ncc2cc(C(=O)Nc3cc(C(=O)N[C@H](CCN)c4ccccc4)ccc3Cl)c(=O)[nH]c2n1` [Example 171, (R)—N-(5-(3-Amino-1-phenylpropylcarbamoyl)-2-chlorophenyl)-2-methoxy-7-oxo-7,8-dihydropyrido[2,3-d]pyrimidine-6-carboxamide], the IC50 on Human DYRK1B (setting [2]) is 0.017 µM. For the same compound, the concentration giving a half-maximal response (EC50) in assay [1] was 0.446 µM.

`CN1CCN(CCCNc2ncc3cc(C(=O)Nc4cc(C(=O)NC(CCN)c5ccccc5)ccc4Cl)c(=O)[nH]c3n2)CC1` (centres unmarked) [Example 121, N-(5-(3-Amino-1-phenylpropylcarbamoyl)-2-chlorophenyl)-2-(3-(4-methylpiperazin-1-yl)propylamino)-7-oxo-7,8-dihydropyrido[2,3-d]pyrimidine-6-carboxamide hydrochloride] registered a 50% inhibitory concentration (IC50) on Human DYRK1B (Enzyme IC50 (μM) DYRK1B) of 0.0137 µM. In addition, in assay [1], the EC50 is 0.157 µM.

Consider `COc1ncc2cc(C(=O)Nc3cc(C(=O)NCc4ccccc4)ccc3Cl)c(=O)[nH]c2n1` [Example 31, 2-Methoxy-7-oxo-7,8-dihydro-pyrido[2,3-d]pyrimidine-6-carboxylic acid (5-benzylcarbamoyl-2-chloro-phenyl)-amide], for which the IC50 at Human DYRK1B (Enzyme IC50 (μM) DYRK1B) was determined as 0.048 µM. In addition, the EC50 in assay [1] is above 100 µM.

Compound `COc1ncc2cc(C(=O)Nc3cc(C(N)=O)ccc3Cl)c(=O)[nH]c2n1` [Example 88, 2-Methoxy-7-oxo-7,8-dihydro-pyrido[2,3-d]pyrimidine-6-carboxylic acid (5-carbamoyl-2-chloro-phenyl)-amide] had an IC50 at Human DYRK1B (Enzyme IC50 (μM) DYRK1B) of 0.0749 µM. Besides, the concentration giving a half-maximal response (EC50) in assay [1] is above 10 µM.

`COC(=O)c1ccc(Cl)c(NC(=O)c2cc3cnc(OC)nc3[nH]c2=O)c1` [Example 21, 4-Chloro-3-[(2-methoxy-7-oxo-7,8-dihydro-pyrido[2,3-d]pyrimidine-6-carbonyl)-amino]-benzoic acid methyl ester]: the IC50 on Human DYRK1B (Enzyme IC50 (μM) DYRK1B) amounted to 0.135 µM. Further, the EC50 in assay [1] stood at 3.34 µM.

With `COc1ncc2cc(C(=O)Nc3cc(C(=O)NC(CCN)c4ccccc4)ccc3Cl)c(=O)[nH]c2n1` (centres unmarked) [Example 76, 2-Methoxy-7-oxo-7,8-dihydro-pyrido[2,3-d]pyrimidine-6-carboxylic acid [5-(3-amino-1-phenyl-propylcarbamoyl)-2-chloro-phenyl]-amide], the IC50 on Human DYRK1B (setting [2]) came out at 0.0128 µM. Besides, the EC50 in assay [1] turned out to be 0.657 µM.

Regarding `COc1ncc2cc(C(=O)Nc3cc(C(=O)N[C@H](CN)c4ccccc4)ccc3Cl)c(=O)[nH]c2n1` [Example 133, (S)—N-(5-(2-Amino-1-phenylethylcarbamoyl)-2-chlorophenyl)-2-methoxy-7-oxo-7,8-dihydropyrido[2,3-d]pyrimidine-6-carboxamide], on Human DYRK1B (setting [2]), the IC50 came to 0.0365 µM. For the same compound, in assay [1], the concentration for a half-maximal effect (EC50) was 0.738 µM.
